# From the METLIN SMRT retention time set (Domingo-Almenara et al. 2019)
# Assay: gradient 5% acetonitrile 3 min, to 50% in 2 min, to 85% in 15 min, held 3 min, 100 µL/min
# Conditions: column: Zorbax Extend-C18 2.1 x 50 mm; eluents: water / acetonitrile, 0.1% formic acid
# How it was run: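 The system's dead and dwell volumes were 40 μL and 900 μL, with a Zorbax Extend-C18 column (2.1 × 50 mm, 1.8 μm) run at 100 μL/min in water and acetonitrile containing 0.1% formic acid each. Pure standards were analyzed in mixtures of ~100 molecules by HPLC–quadrupole time-of-flight mass spectrometry in positive and negative ionization mode. Retention time was assigned from computationally picked, manually inspected adduct peaks.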
row,RP-LC retention time,Structure (SMILES)
1,822 s,COc1cccc(C(=O)N2CCc3c(c(-c4nnc(-c5ccccc5Cl)o4)nn3C)C2)c1OC
2,1010 s,CC1CCN(C(=O)C2=NN(Cc3cccc(F)c3)c3ccccc3S2(=O)=O)CC1
3,820 s,COC(=O)c1c2c(nc3ccccc13)CCN(C(=O)Nc1ccccc1OC)C2
4,709 s,CNC(=O)c1ccsc1NC(=O)c1coc2ccccc2c1=O
5,1030 s,Cc1cc(C)cc(C(=O)Nc2ccc3c(c2)Sc2ncccc2C(=O)N3C(C)C)c1
6,714 s,CN(C)S(=O)(=O)c1ccc(C(=O)N2CCCC(c3nnc(-c4cccs4)o3)C2)cc1 (stereo unspecified)
7,1160 s,O=S(=O)(c1ccc2nc(N3CCN(c4ccccc4F)CC3)ccc2c1)N1CCCCC1
8,658 s,CCOc1ccc(S(=O)(=O)N2CCC(C(=O)NCc3ccccn3)CC2)cc1
9,1090 s,O=C(NCc1ccco1)C1CCN(c2ncccc2-c2nc(-c3ccc(Cl)cc3)no2)CC1
10,672 s,COc1cccc2cc(-c3ccc(OCC(=O)N4CCC(C(N)=O)CC4)cc3)c(=O)oc12
11,910 s,CCOc1ccc(C(=O)NCCc2c[nH]c3ccc(C)cc23)cc1OCC
12,800 s,Cc1ccc(CNC(=O)C2CCN(Cc3cc4ccccc4n3Cc3ccccc3C)CC2)o1
13,1230 s,COc1ccc(CN2C=C(C(=O)OCc3noc(-c4ccc(C)c(C)c4)n3)C(C)=NS2(=O)=O)cc1
14,716 s,Cc1ccn2cc(-c3ccc(NC(=O)c4cccc(C(F)(F)F)c4)cc3)nc2n1
15,606 s,O=C(O)c1cnc(NCc2cccnc2)nc1-c1ccc(Cl)cc1
16,594 s,COCCN1C(=O)c2cccn2CC1CNC(=O)c1ccc(Cc2c(C)n[nH]c2C)o1 (stereo unspecified)
17,678 s,CCCCNC(=O)c1cn(-c2ccc(NC(=O)CC)cn2)cn1
18,645 s,Cc1occc1C(=O)N1CCC2(CC1)CC(C)(O)CCO2 (stereo unspecified)

row,RP-LC retention time,Structure (SMILES)
1,744 s,CCS(=O)(=O)Nc1ccc(-c2noc(CNC(=O)c3ccccc3)n2)cc1
2,877 s,CCC(C)Sc1nnc(NC(=O)C2CCN(C(=O)c3cccc(F)c3)CC2)s1 (stereo unspecified)
3,994 s,Cc1cc(S(=O)(=O)[C@H]2CS(=O)(=O)C[C@@H]2N2CCN(c3ccccc3)CC2)ccc1F
4,826 s,CCCc1noc(-c2ccc3nnc(CC(=O)NC4CCCCC4)n3c2)n1
5,629 s,O=C(Nc1cccc(C(F)(F)F)c1)N1CCN(c2cnn3c(C4CC4)nnc3c2)CC1
6,936 s,CCCN(CC1CCOC1)S(=O)(=O)c1ccc(OC)c(Cl)c1 (stereo unspecified)
7,823 s,O=C(O)c1cnc(N2CCOCC2)nc1-c1ccc(Cl)cc1
8,630 s,Cc1ccc(NC(=O)Nc2c(-c3ccncc3)nc3ccccn23)cc1F
9,637 s,CCOC(=O)N1CCN(/C=C2\Oc3c(ccc(O)c3C)C2=O)CC1
10,811 s,O=C(C1=CN(c2cccc(Cl)c2)c2cc(F)ccc2S1(=O)=O)N1CCOCC1
11,573 s,Cn1cc(C(=O)N2CCC(N(Cc3ccccc3)C3CCOCC3)CC2)cn1
12,729 s,CCOc1ccc(Nc2c(-c3ccc(C(=O)O)cc3)nc3cnccn23)cc1
13,931 s,COc1ccc(NC(=O)c2cc(C(C)C)n(C3CCS(=O)(=O)C3)n2)cc1Cl (stereo unspecified)
14,856 s,Cc1oc(C2CCN(S(=O)(=O)c3cccs3)CC2)nc1C(=O)N1CCCC1
15,620 s,OCCOCCNCc1ccc(-c2ccc(F)cc2)o1
16,586 s,CN1c2cc(C(=O)NCc3ccncc3)ccc2C(=O)N2CCCCC21 (stereo unspecified)
17,871 s,COc1cc(C(=O)Nc2nnc(SCc3nnc(-c4ccccc4)o3)s2)cc(OC)c1OC

row,Structure (SMILES),RP-LC retention time
1,CCC(=O)N1CCC2(CC1)c1nccn1-c1ccccc1CN2CC(C)C,632 s
